# US20030212147A1, “Enzyme activated chemotherapy of liver cancer” (priority 2003, published 2003)
# “Also recorded” adds a separate entry of the source.
# Assays:
# HepG2 cells = test: LDH-release cytotoxicity assay in HepG2 cells cultured in isotonic or hypertonic (AR-inducing) medium; type: cell-based, human; conditions: for effect on HepG2 cells (LDH release): 50 μM ND; for toxic effect (LDH released into the medium): 5 hours
# Description: HepG2 cells, a human liver cell line, were purchased from the American Type Culture Collection (Rockville, Md.). The basic (isotonic) medium was MEM medium supplemented with 10% fetal bovine serum, 100 U/ml penicillin, 100 μg/ml streptomycin, 0.1 mM MEM non-essential amino acids, and 1 mM sodium pyruvate. Medium was made hypertonic by adding NaCl to 100 mM, and the osmolarity was about 500 mosmol/kg as determined by osmometer. ND was dissolved in 20% ethanol to make a 50 mM stock solution. NQ was dissolved in 100% ethanol to make a 50 mM stock solution. AL1576 was dissolved in 20 mM NaOH to make a 20 mM stock solution.
# Cells were first cultured in isotonic medium until 70% confluent. The medium was then made hypertonic by NaCl and incubated for 72 hours. The cells were then seeded onto 24-well plate at 8×10^4 cells/well and incubated for 24 hours in hypertonic medium. Cells for isotonic control were processed in parallel except that no NaCl was added. ND and AR inhibitor AL1576 were added as indicated.
# Cytotoxicity was measured by the percent of LDH (lactate dehydrogenase) released into the medium. LDH activity was determined by Cytotoxicity Detection Kit. The optical density of the colored product was measured at 492 and 690 nm by SpectraMax 340 Microplate reader (Molecular Devices). LDH released into the medium was measured by taking samples of the medium. Total LDH was determined by taking samples of cell extracts lysed by Triton X-100 at a final concentration of 1%.
# [1] = type: physicochemical
# Description: Naphthalene is insoluble in water. […] Accordingly, ND, the metabolized product of naphthalene (see FIG. 1), rather than naphthalene, was used to test the cytotoxic activity of the drug that is activated AR overproduced by HepG2 cells.
# [2] = rabbit cataract model; taken as the likely toxic level for oral administration; cited from earlier work
smiles,measurement,setting,value
"OC1C=Cc2ccccc2C1O (stereo not shown) [ND, naphthalene-1,2-dihydrodiol]",effect on HepG2 cells (LDH release),HepG2 cells; hypertonic medium,no effect
same,effect on HepG2 cells (LDH release),HepG2 cells; isotonic medium,no effect
same,toxic effect (LDH released into the medium),"HepG2 cells; 500 μM ND, HepG2 cells in hypertonic medium (AR overexpressed)",highly toxic
same,toxic effect (LDH released into the medium),"HepG2 cells; 500 μM ND, HepG2 cells in isotonic medium",no sign of toxic effects; also recorded: no toxic effect
same,LDH released relative to that released by control cells (isotonic medium),"HepG2 cells; 500 μM ND, hypertonic versus isotonic medium",more than 10 times
same,sensitivity of HepG2 cells to ND in hypertonic versus isotonic medium,HepG2 cells; hypertonic versus isotonic medium,10 times
c1ccc2ccccc2c1 [Naphthalene],behaviour when added to the medium,[1],quickly precipitates
same,solubility in water,[1],insoluble
same,dose at which cataract and degeneration of the retina develop,[2],about 1 g/kg body weight
"O=C1NC(=O)C2(N1)c1cc(F)ccc1-c1ccc(F)cc12 [AL1576, 2,7-difluorospirofluorene-9,5′-imidazolidine-2′4′-dione, reference compound]",protection of HepG2 cells against the toxic effects of ND by the AR inhibitor,HepG2 cells; HepG2 cells in hypertonic medium with ND,can protect these cells against the toxic effects of ND
